Measured values reported in patent USRE45173E1, “Inhibitors of CYP 17” (Novartis AG, priority 2009, dated 2014).
Where two headings read alike, the source gives them in different places.

Target: recombinant human CYP17 enzyme (Homo sapiens (Human), UniProt P05093)
Experiment: Cytochrome P450, 17-20 lyase (CYP17-lyase) assay, tritiated acetic acid release from 17-α-hydroxy pregnenolone [21-3H]
Type: biochemical
Settings: human CYP17, substrate 0.25 μM
Excerpt: Assay method was adopted from a published protocol with some modifications to suit our requirements (Dmitry N Grigoryev et al, Analytical Biochemistry, (1999) 267, 319-330). […] Chloroform extraction removes the radioactive steroids and acetic acid is taken into aqueous layer. The tritiated acetic acid released in the assay thus extracted is quantified to determine the enzyme activity. […] The purified cell membrane preparations were used as the source for Human CYP17 enzyme. […] O, Nijar, et al., J Med Chem, (1998) 41, 902-912). […] Km for this substrate was determined by monitoring the tritiated acetic acid release as a function of substrate concentration. […] For the Km determination, the data was fit to a hyperbolic equation (Graphpad Prism® software IV). […] (Dmitry N. Grigoryev et al, Analytical Biochemistry (1999) 267, 319-330) […] NADPH is used at a final concentration of 4.2 mM. Total reaction volume was made up to 50 μL with 50 mM Phosphate buffer pH 7.5. The reaction mixture was incubated at room temperature for 90 minutes with gentle shaking. The reaction was stopped by the addition of 100 μL of buffer. 500 μL of 5% freshly prepared activated charcoal was added to the solution and mixed well by vortexing. The samples were centrifuged at 17568×g for 5 minutes. (14000 rpm). The supernatant was carefully transferred to fresh tube and 1.3 mL of scintillation fluid was added, mixed by vortexing. The radioactivity was measured in a 1450 MicroBeta TriLux™ scintillation counter from Wallac-Perkin Elmer®, USA. The measurements were carried out in 2.0 mL Eppendorforf™ tubes. […] The amount of tritiated acetic acid released is proportional to the lyase activity. Percent lyase activity in presence of inhibitor was calculated using the formula given below. […] Enzyme reaction in presence of inhibitor. • Positive control: […] For IC50 determination, the % inhibition was plotted as a function of inhibitor concentration. The data was fitted to sigmoidal equation using Graphpad Prism® software IV to generate IC50 values.

[1] = read-out: Lyase IC 50 nM Human/Rat (Human)
[2] = read-out: Lyase IC 50 Human/Rat (Human)

recombinant human CYP17 enzyme, sequence (P05093 whole entry): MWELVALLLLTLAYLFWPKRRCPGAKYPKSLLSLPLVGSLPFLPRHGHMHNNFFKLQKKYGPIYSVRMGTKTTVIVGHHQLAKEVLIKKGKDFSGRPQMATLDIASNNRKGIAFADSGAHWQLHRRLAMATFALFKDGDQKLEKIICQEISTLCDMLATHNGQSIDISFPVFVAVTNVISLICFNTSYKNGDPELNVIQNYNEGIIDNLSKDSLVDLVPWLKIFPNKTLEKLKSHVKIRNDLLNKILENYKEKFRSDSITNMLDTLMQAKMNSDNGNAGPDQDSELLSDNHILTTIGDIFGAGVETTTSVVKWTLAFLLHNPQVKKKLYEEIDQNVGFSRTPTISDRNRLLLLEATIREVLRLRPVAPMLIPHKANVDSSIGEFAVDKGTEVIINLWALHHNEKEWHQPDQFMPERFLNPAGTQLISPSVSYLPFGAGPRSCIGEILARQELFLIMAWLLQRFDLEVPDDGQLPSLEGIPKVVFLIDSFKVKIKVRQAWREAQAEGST

IC50 [1]	IC50 [2]	Structure (SMILES)
46 nM	–	Cc1cc(N2CCN(c3cnccc3C)C2=O)ccn1 [Example 100A, 1-(4-Methyl-pyridin-3-yl)-3-(2-methyl-pyridin-4-yl)-imidazolidin-2-one]
19 nM	–	Cc1ccncc1N1CCN(c2ccc(F)c(C#N)c2)C1=O [Example 103A, 2-Fluoro-5-[3-(4-methyl-pyridin-3-yl)-2-oxo-imidazolidin-1-yl]-benzonitrile]
1990 nM	–	Cc1cn2cc(N3CCN(c4cnccc4C)C3=O)ccc2n1 [Example 104A]
1470 nM	–	Cc1nc2ccc(N3CCN(c4cnccc4C)C3=O)cc2s1 [Example 105A, 1-(2-Methyl-benzothiazol-6-yl)-3-(4-methyl-pyridin-3-yl)-imidazolidin-2-one]
35 nM	–	Cc1ccncc1N1CCN(c2cccc(C#N)c2)C1=O [Example 106A, 3-[3-(4-Methyl-pyridin-3-yl)-2-oxo-imidazolidin-1-yl]-benzonitrile]
363 nM	–	Cc1ccncc1N1CCN(c2ccc3[nH]cnc3c2)C1=O [Example 108A, 1-(1H-Benzoimidazol-5-yl)-3-(4-methyl-pyridin-3-yl)-imidazolidin-2-one]
106 nM	–	Cc1ccncc1N1CCN(c2ccc3c(C)noc3c2)C1=O [Example 111A, 1-(3-Methyl-benzo[d]isoxazol-6-yl)-3-(4-methyl-pyridin-3-yl)-imidazolidin-2-one]
230 nM	–	Cc1ccncc1N1CCN(c2ccc3oncc3c2)C1=O [Example 113A, 1-Benzo[d]isoxazol-5-yl-3-(4-methyl-pyridin-3-yl)-imidazolidin-2-one]
24 nM	–	Cc1ccncc1N1CCN(c2ccc3c(cnn3C)c2)C1=O [Example 114A, 1-(1-Methyl-1H-indazol-5-yl)-3-(4-methyl-pyridin-3-yl)-imidazolidin-2-one]
–	> 10000 nM	Cc1ccncc1N1CCN(c2ccc3c(c2)ncn3C)C1=O [Example 116A, 1-(1-Methyl-1H-benzoimidazol-5-yl)-3-(4-methyl-pyridin-3-yl)-trifluoroacetic Acid]
94 nM	–	Cc1ccncc1N1CCN(c2ccc3[nH][nH]c(=O)c3c2)C1=O [Example 117A, 5-[3-(4-Methyl-pyridin-3-yl)-2-oxo-imidazolidin-1-yl]-1,2-dihydro-indazol-3-one]
17 nM	–	Cc1ccncc1N1CCN(c2ccc3[nH]nc(N)c3c2)C1=O [Example 118A, 1-(3-Amino-1H-indazol-5-yl)-3-(4-methyl-pyridin-3-yl)-imidazolidin-2-one]
2.5 nM	–	Cc1ccncc1N1CCN(c2ccc3cn[nH]c3c2)C1=O [Example 121A, 1-(1H-Indazol-6-yl)-3-(4-methyl-pyridin-3-yl)-imidazolidin-2-one]
383 nM	–	Cc1ccncc1N1CCN(c2cnc3[nH]cnc3c2)C1=O [Example 122A, 1-(3H-Imidazo[4,5-b]pyridin-6-yl)-3-(4-methyl-pyridin-3-yl)-imidazolidin-2-one Trifluoroacetic Acid]
10 nM	–	Cc1ccncc1N1CCN(c2ccc3c(N)n[nH]c3c2)C1=O [Example 123A, 1-(3-Amino-1H-indazol-6-yl)-3-(4-methyl-pyridin-3-yl)-imidazolidin-2-one]
17 nM	–	O=C1N(c2ccc3ncsc3c2)CCN1c1cnccc1C(F)F [Example 125A, 1-Benzothiazol-6-yl-3-(4-difluoromethyl-pyridin-3-yl)-imidazolidin-2-one]
25 nM	–	O=C1N(c2ccc3ncsc3c2)CCN1c1cnccc1CO [Example 126A, 1-Benzothiazol-6-yl-3-(4-hydroxymethyl-pyridin-3-yl)-imidazolidin-2-one]
–	> 10000 nM	Cc1ccc(N2CCN(c3ccc4ncsc4c3)C2=O)cn1 [Example 127A, 1-Benzothiazol-6-yl-3-(6-methyl-pyridin-3-yl)-imidazolidin-2-one]
44 nM	–	O=C1N(c2ccc3ncsc3c2)CCN1c1cnccc1C(F)(F)F [Example 128A, 1-Benzothiazol-6-yl-3-(4-trifluoromethyl-pyridin-3-yl)-imidazolidin-2-one]
202 nM	–	N#Cc1ccncc1N1CCN(c2ccc3ncsc3c2)C1=O [Example 129A]
–	> 10000 nM	Cc1ccncc1N1CCN(c2ccc3nn(C)cc3c2)C1=O [Example 132A, 1-(2-Methyl-2H-indazol-5-yl)-3-(4-methyl-pyridin-3-yl)-imidazolidin-2-one]

Further lines, the molecule ahead of its results:

Structure (SMILES)	IC50 [1]	IC50 [2]
Cc1ccncc1N1CCN(c2ccc3[nH]nc(C)c3c2)C1=O [Example 95A, 1-(3-Methyl-1H-indazol-5-yl)-3-(4-methyl-pyridin-3-yl)-imidazolidin-2-one]	119 nM	–
CC(=O)Nc1cc(N2CCN(c3cnccc3C)C2=O)ccn1 [Example 96A]	–	> 10000 nM
COc1nccc2sc(N3CCN(c4cnccc4C)C3=O)cc12 [Example 97A, 1-(4-Methoxy-thieno[3,2-c]pyridin-2-yl)-3-(4-methyl-pyridin-3-yl)-imidazolidin-2-one]	356 nM	–
Cc1ccncc1N1CCN(c2cc3c(Cl)nccc3s2)C1=O [Example 98A, 1-(4-chloro-thieno[3,2-c]pyridin-2-yl)-3-(4-methyl-pyridin-3-yl)-imidazolidin-2-one]	18 nM	–
Cc1ccncc1N1CCN(c2csc3ccnc(Cl)c23)C1=O [Example 99A, 1-(4-Chloro-thieno[3,2-c]pyridin-3-yl)-3-(4-methyl-pyridin-3-yl)-imidazolidin-2-one]	22 nM	–
Cc1ccncc1N1CCN(c2ccc3onc(C)c3c2)C1=O [Example 101A, 1-(3-Methyl-benzo[d]isoxazol-5-yl)-3-(4-methyl-pyridin-3-yl)-imidazolidin-2-one]	46 nM	–
Cc1ccncc1N1CCN(c2c[nH]c3ccccc23)C1=O [Example 107A, 1-(1H-Indol-3-yl)-3-(4-methyl-pyridin-3-yl)-imidazolidin-2-one]	334 nM	–
Cc1ccncc1N1CCN(c2csc3ccccc23)C1=O [Example 109A, 1-Benzo[b]thiophen-3-yl-3-(4-methyl-pyridin-3-yl)-imidazolidin-2-one]	158 nM	–
COc1nccc2scc(N3CCN(c4cnccc4C)C3=O)c12 [Example 110A, 1-(4-Methoxy-thieno[3,2-c]pyridin-3-yl)-3-(4-methyl-pyridin-3-yl)-imidazolidin-2-one]	–	> 10000 nM
Cc1ccncc1N1CCN(c2ccc(C#N)c(Cl)c2)C1=O [Example 112A, 2-Chloro-4-[3-(4-methyl-pyridin-3-yl)-2-oxo-imidazolidin-1-yl]-benzonitrile]	28 nM	–
Cc1ccncc1N1CCN(c2cnc3ccccn23)C1=O [Example 119A, 1-Imidazo[1,2-a]pyridin-3-yl-3-(4-methyl-pyridin-3-yl)-imidazolidin-2-One]	3200 nM	–
Cc1ccncc1N1CCN(c2cc3cnccc3s2)C1=O [Example 120A, 1-(4-Methyl-pyridin-3-yl)-3-thieno[3,2-c]pyridin-2-yl-imidazolidin-2-one]	–	4000 nM
Cc1ccncc1N1CCCN(c2ccc3ccccc3c2)C1=O [Example 130A, 1-(4-Methyl-pyridin-3-yl)-3-naphthalen-2-yl-tetrahydro-pyrimidin-2-one]	–	> 10000 nM
Cc1cccc(N2CCN(c3cnccc3C(F)(F)F)C2=O)c1 [Example 131A, 1-m-Tolyl-3-(4-trifluoromethyl-pyridin-3-yl)-imidazolidin-2-one]	103 nM	–
Cc1ccncc1N1CCN(c2cccc3ccccc23)C1=O [Example 133A, 1-(4-Methyl-pyridin-3-yl)-3-naphthalen-1-O-imidazolidin-2-one]	1970 nM	–
